Here are results for nine compounds from patent publication US4737494A, “1,3-dithiole derivatives and pharmaceutical compositions” (priority 1984, dated 1988).

In the assay the test system is acute liver injury induced by carbon tetrachloride. Kind of assay: Protective effect on acute liver injury induced by carbon tetrachloride (mice, oral): plasma GPT activity and BSP retention. In kind it is in vivo, mice (ddY, male). As to conditions: 6 h before CCl4 (0.05 ml/kg p.o.); for GPT activity: plasma; for Retained BSP: plasma 30 min after BSP 75 mg/kg i.v. As to the method:
1. Protective Effect on Acute Liver Injury Induced by Carbon Tetrachloride
A test compound was dissolved or suspended in olive oil and administered orally to mice (ddY mice, .male., 23±2 g, n=5). After 6 hours, carbon tetrachloride (0.05 ml/kg) was administered orally. 24 Hours after the administration of carbon tetrachloride, BSP (sodium sulfobromophthalein; 75 mg/kg) was administered intravenously. Thirty minutes later, the cardiac blood was collected, and GPT (glutamic-pyruvic transaminase) activity and the retention rate of BSP in the plasma were measured.

Turning to `CCOC(=O)C[N+](C)=c1sccs1.[O-][Cl+3]([O-])([O-])[O-]` [Compound No. 1, N-(1,3-dithiol-2-ylidene)-N-methyl-N-ethoxycarbonylmethylammonium perchlorate], the GPT activity runs as follows: (1 mg/kg) 3280 ± 399 Karmen units; (5 mg/kg) 183 ± 74 Karmen units. In addition, the “Retained BSP” value runs as follows: (1 mg/kg) 53.2 ± 11.4 µg/mL; (5 mg/kg) 18.4 ± 1.3 µg/mL.
For the compound `CNC(=O)C[N+](C)=c1sccs1` [Compound No. 3, N-(1,3-dithiol-2-ylidene)-N-methyl-N-(N'-methylcarbamoylmethyl)ammonium perchlorate], where the note is “1 mg/kg”, the GPT activity is reported as 3740 ± 430 Karmen units and the “Retained BSP” value amounted to 67.1 ± 14.3 µg/mL. Besides, under “5 mg/kg”, the GPT activity came to 541 ± 101 Karmen units and the “Retained BSP” value came to 27.1 ± 10.1 µg/mL.
With `C[N+](CCC#N)=c1sccs1.[I-]` [Compound No. 4, N-(1,3-dithiol-2-ylidene)-N-methyl-N-(2-cyanoethyl)ammonium iodide], the GPT activity is 2535 ± 158 Karmen units (1 mg/kg) and 543 ± 92 Karmen units (5 mg/kg). The “Retained BSP” value (1 mg/kg) came out at 42.6 ± 2.3 µg/mL and the “Retained BSP” value (5 mg/kg) was determined as 29.4 ± 11.1 µg/mL.
Consider `C[N+](=c1sccs1)C1CCCCC1.[O-][Cl+3]([O-])([O-])[O-]` [Compound No. 7, N-(1,3-dithiol-2-ylidene)-N-methyl-N-cyclohexylammonium perchlorate], for which, under “1 mg/kg”, the GPT activity was 4920 ± 670 Karmen units and the “Retained BSP” value came out at 120.1 ± 17.1 µg/mL. Where the note is “5 mg/kg”, the GPT activity amounted to 1400 ± 77 Karmen units and the “Retained BSP” value is 57.1 ± 5.1 µg/mL.
Consider `C[N+](c1ccccc1)=c1sccs1.[O-][Cl+3]([O-])([O-])[O-]` [Compound No. 8, N-(1,3-dithiol-2-ylidene)-N-methyl-N-phenylammonium perchlorate], for which, where the note is “1 mg/kg”, the GPT activity came to 2394 ± 193 Karmen units and the “Retained BSP” value was found to be 39.3 ± 10.7 µg/mL. In addition, under “5 mg/kg”, the GPT activity is given as 117 ± 28 Karmen units and the “Retained BSP” value is 11.6 ± 1.5 µg/mL.
On the same counts, the results for `Cc1cccc([N+](C)=c2sccs2)c1.[O-][Cl+3]([O-])([O-])[O-]` [Compound No. 9, N-(1,3-dithiol-2-ylidene)-N-methyl-N-(m-tolyl)ammonium perchlorate] are 2250 ± 325 Karmen units, 73.1 ± 14.7 µg/mL, 191 ± 71 Karmen units and 21.4 ± 2.1 µg/mL.
Regarding `C[N+](Cc1ccccc1)=c1sccs1.[O-][Cl+3]([O-])([O-])[O-]` [Compound No. 10, N-(1,3-dithiol-2-ylidene)-N-methyl-N-benzylammonium perchlorate], where the note is “1 mg/kg”, the GPT activity was found to be 1865 ± 106 Karmen units and the “Retained BSP” value amounted to 29.5 ± 6.0 µg/mL. Further, under “5 mg/kg”, the GPT activity was 108 ± 27 Karmen units and the “Retained BSP” value is 16.6 ± 1.6 µg/mL.
Consider `C=CC[N+](CC=C)=c1sccs1.[O-][Cl+3]([O-])([O-])[O-]` [Compound No. 12, N-(1,3-dithiol-2-ylidene)-N,N-diallylammonium perchlorate], for which, for the setting “1 mg/kg”, the GPT activity came out at 5438 ± 401 Karmen units and the “Retained BSP” value came to 109.3 ± 14.8 µg/mL. Moreover, where the note is “5 mg/kg”, the GPT activity came out at 1241 ± 103 Karmen units and the “Retained BSP” value was determined as 25.4 ± 5.0 µg/mL.
On the same counts, the results for `[O-][Cl+3]([O-])([O-])[O-].c1ccc(C[N+](Cc2ccccc2)=c2sccs2)cc1` [Compound No. 16, N-(1,3-dithiol-2-ylidene)-N,N-dibenzylammonium perchlorate] are 4121 ± 311 Karmen units, 107.4 ± 13.9 µg/mL, 1017 ± 37 Karmen units and 21.8 ± 6.0 µg/mL.
